Laboratory results reported in PubChem BioAssay AID1963962 (Molecular Pharmacology Branch, DTP, NCI, 2024).
“And” between values parts separate entries of the source, which are not always exact repeats. Equal values may be shown once.

Tested on: 967376-340-R-J2-PDC multicell spheroid viability
Experiment: Anticancer human tumor 967376-340-R-J2-PDC patient-derived colon adenocarcinoma cell line growth inhibition [PI3K]
Settings: for viability, T/C: stronger effect = lower value
How it was run: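 Complex 3D spheroids (cancer cells + endothelial HUVEC + mesenchymal stem cells); drug pairs of targeted agent x inavolisib/alpelisib/duvelisib/copanlisib; half-log series from ~Cmax, max 10 microM if Cmax unknown; endpoint viability.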

[1] = curve of first compound, second compound 0.0316 µM
[2] = curve of first compound, second compound 0.1 µM
[3] = curve of first compound, second compound 0.316 µM
[4] = curve of first compound, second compound 1 µM
[5] = curve of first compound, second compound 3.16 µM
[6] = curve of first compound, second compound 10 µM
[7] = second compound 0.0316 µM, first compound 0.0316 µM
[8] = second compound 0.0316 µM, first compound 0.1 µM
[9] = second compound 0.0316 µM, first compound 0.316 µM
[10] = second compound 0.0316 µM, first compound 1 µM
[11] = second compound 0.0316 µM, first compound 3.16 µM
[12] = second compound 0.0316 µM, first compound 10 µM
[13] = second compound 0.1 µM, first compound 0.0316 µM
[14] = second compound 0.1 µM, first compound 0.1 µM
[15] = second compound 0.1 µM, first compound 0.316 µM
[16] = second compound 0.1 µM, first compound 1 µM
[17] = second compound 0.1 µM, first compound 3.16 µM
[18] = second compound 0.1 µM, first compound 10 µM
[19] = second compound 0.316 µM, first compound 0.0316 µM
[20] = second compound 0.316 µM, first compound 0.1 µM
[21] = second compound 0.316 µM, first compound 0.316 µM
[22] = second compound 0.316 µM, first compound 1 µM
[23] = second compound 0.316 µM, first compound 3.16 µM
[24] = second compound 0.316 µM, first compound 10 µM
[25] = second compound 1 µM, first compound 0.0316 µM
[26] = second compound 1 µM, first compound 0.1 µM
[27] = second compound 1 µM, first compound 0.316 µM
[28] = second compound 1 µM, first compound 1 µM
[29] = second compound 1 µM, first compound 3.16 µM
[30] = second compound 1 µM, first compound 10 µM
[31] = second compound 3.16 µM, first compound 0.0316 µM
[32] = second compound 3.16 µM, first compound 0.1 µM
[33] = second compound 10 µM, first compound 0.0316 µM
[34] = second compound 10 µM, first compound 0.1 µM
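Note: spheroids exposed to agents for 7 days before read-out.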
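Throughout, for viability, T/C: luminescence used as surrogate of cell viability.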

Structure (SMILES): CC1(C)CCC(Nc2ncc(C(F)(F)F)c(-c3c[nH]c4c(P(C)(C)=O)c(C#N)ccc34)n2)CN1 (stereo not given) + CC(Nc1ncnc2nc[nH]c12)c1cc2cccc(Cl)c2c(=O)n1-c1ccccc1
- IC50 [1]: > 10 µM
- IC50 [2]: > 10 µM
- IC50 [3]: > 10 µM
- IC50 [4]: > 10 µM
- IC50 [5]: > 10 µM
- IC50 [6]: 4.79 µM
- viability, T/C [7]: 103%
- viability, T/C [8]: 90.2%
- viability, T/C [9]: 80.3%
- viability, T/C [10]: 69.2%
- viability, T/C [11]: 68.3%
- viability, T/C [12]: 55.4%
- viability, T/C [13]: 108%
- viability, T/C [14]: 92.8%
- viability, T/C [15]: 79.6%
- viability, T/C [16]: 75.2%
- viability, T/C [17]: 76.6%
- viability, T/C [18]: 55.7%
- viability, T/C [19]: 83.5%
- viability, T/C [20]: 91.6%
- viability, T/C [21]: 93%
- viability, T/C [22]: 60.9%
- viability, T/C [23]: 71.4%
- viability, T/C [24]: 64.3%
- viability, T/C [25]: 90.6%
- viability, T/C [26]: 93.5%
- viability, T/C [27]: 64.1%
- viability, T/C [28]: 78.1%
- viability, T/C [29]: 68.2%
- viability, T/C [30]: 63.9%
- viability, T/C [31]: 84.6%
- viability, T/C [32]: 73.6%
- viability, T/C (second compound 3.16 µM, first compound 0.316 µM): 85%
- viability, T/C (second compound 3.16 µM, first compound 1 µM): 73.4%
- viability, T/C (second compound 3.16 µM, first compound 3.16 µM): 73%
- viability, T/C (second compound 3.16 µM, first compound 10 µM): 62.3%
- viability, T/C [33]: 72.3%
- viability, T/C [34]: 73.8%
- viability, T/C (second compound 10 µM, first compound 0.316 µM): 70.2%
- viability, T/C (second compound 10 µM, first compound 1 µM): 63.5%
- viability, T/C (second compound 10 µM, first compound 3.16 µM): 56.8%
- viability, T/C (second compound 10 µM, first compound 10 µM): 39.4%

Structure (SMILES): Cn1ncnc1[C@H]1c2n[nH]c(=O)c3cc(F)cc(c23)N[C@@H]1c1ccc(F)cc1 + Cc1nc(NC(=O)N2CCCC2C(N)=O)sc1-c1ccnc(C(C)(C)C(F)(F)F)c1
- IC50 [1]: > 0.1 µM
- IC50 [2]: > 0.1 µM
- IC50 [3]: > 0.1 µM
- IC50 [4]: > 0.1 µM
- IC50 [5]: > 0.1 µM
- IC50 [6]: 0.0218 µM
- viability, T/C (second compound 0.0316 µM, first compound 0.000316 µM): 85.9%
- viability, T/C (second compound 0.0316 µM, first compound 0.001 µM): 84.8%
- viability, T/C (second compound 0.0316 µM, first compound 0.00316 µM): 83%
- viability, T/C (second compound 0.0316 µM, first compound 0.01 µM): 79.5%
- viability, T/C [7]: 109%
- viability, T/C [8]: 86.2%
- viability, T/C (second compound 0.1 µM, first compound 0.000316 µM): 104%
- viability, T/C (second compound 0.1 µM, first compound 0.001 µM): 69.8%
- viability, T/C (second compound 0.1 µM, first compound 0.00316 µM): 77.9%
- viability, T/C (second compound 0.1 µM, first compound 0.01 µM): 92.8%
- viability, T/C [13]: 82.6%
- viability, T/C [14]: 82.1%
- viability, T/C (second compound 0.316 µM, first compound 0.000316 µM): 70.7%
- viability, T/C (second compound 0.316 µM, first compound 0.001 µM): 69%
- viability, T/C (second compound 0.316 µM, first compound 0.00316 µM): 50.6%
- viability, T/C (second compound 0.316 µM, first compound 0.01 µM): 76.6%
- viability, T/C [19]: 71.3%
- viability, T/C [20]: 67.8%
- viability, T/C (second compound 1 µM, first compound 0.000316 µM): 58.9%
- viability, T/C (second compound 1 µM, first compound 0.001 µM): 71.8%
- viability, T/C (second compound 1 µM, first compound 0.00316 µM): 71.8%
- viability, T/C (second compound 1 µM, first compound 0.01 µM): 67%
- viability, T/C [25]: 55.1%
- viability, T/C [26]: 60.3%
- viability, T/C (second compound 3.16 µM, first compound 0.000316 µM): 51%
- viability, T/C (second compound 3.16 µM, first compound 0.001 µM): 65.9%
- viability, T/C (second compound 3.16 µM, first compound 0.00316 µM): 65.5%
- viability, T/C (second compound 3.16 µM, first compound 0.01 µM): 68.9%
- viability, T/C [31]: 62.4%
- viability, T/C [32]: 56%
- viability, T/C (second compound 10 µM, first compound 0.000316 µM): 48.2%
- viability, T/C (second compound 10 µM, first compound 0.001 µM): 71.1%
- viability, T/C (second compound 10 µM, first compound 0.00316 µM): 51.5%
- viability, T/C (second compound 10 µM, first compound 0.01 µM): 38.8%
- viability, T/C [33]: 50.8%
- viability, T/C [34]: 51.7%

Structure (SMILES): Cn1ncnc1[C@H]1c2n[nH]c(=O)c3cc(F)cc(c23)N[C@@H]1c1ccc(F)cc1
- viability, T/C (compound 0.000316 µM): 78.6% and 114% and 95.8%
- viability, T/C (compound 0.001 µM): 82.5% and 93.1% and 84.2%
- viability, T/C (compound 0.00316 µM): 90.3% and 94.6% and 70.5%
- viability, T/C (compound 0.01 µM): 103% and 104% and 90.4%
- viability, T/C (compound 0.0316 µM): 93.2% and 88.8% and 97.9%
- viability, T/C (compound 0.1 µM): 92.5% and 99.6% and 94.7%
- IC50 (curve of compound): > 0.1 µM

Structure (SMILES): CC1(C)CCC(CN2CCN(c3ccc(C(=O)NS(=O)(=O)c4ccc(NCC5CCOCC5)c([N+](=O)[O-])c4)c(Oc4cnc5[nH]ccc5c4)c3)CC2)=C(c2ccc(Cl)cc2)C1 + COc1c(OCCCN2CCOCC2)ccc2c3n(c(=NC(=O)c4cnc(N)nc4)nc12)CCN3
- IC50 (curve of first compound, second compound 0.00316 µM): > 10 µM
- IC50 (curve of first compound, second compound 0.01 µM): > 10 µM
- IC50 [1]: 7.86 µM
- IC50 [2]: 1.2 µM
- IC50 [3]: < 0.0316 µM
- IC50 [4]: < 0.0316 µM
- viability, T/C (second compound 0.00316 µM, first compound 0.0316 µM): 92.6%
- viability, T/C (second compound 0.00316 µM, first compound 0.1 µM): 82%
- viability, T/C (second compound 0.00316 µM, first compound 0.316 µM): 94.8%
- viability, T/C (second compound 0.00316 µM, first compound 1 µM): 108%
- viability, T/C (second compound 0.00316 µM, first compound 3.16 µM): 81.6%
- viability, T/C (second compound 0.00316 µM, first compound 10 µM): 64.3%
- viability, T/C (second compound 0.01 µM, first compound 0.0316 µM): 83.2%
- viability, T/C (second compound 0.01 µM, first compound 0.1 µM): 87.6%
- viability, T/C (second compound 0.01 µM, first compound 0.316 µM): 82.9%
- viability, T/C (second compound 0.01 µM, first compound 1 µM): 75.8%
- viability, T/C (second compound 0.01 µM, first compound 3.16 µM): 76.4%
- viability, T/C (second compound 0.01 µM, first compound 10 µM): 55.8%
- viability, T/C [7]: 76.9%
- viability, T/C [8]: 73.6%
- viability, T/C [9]: 63.6%
- viability, T/C [10]: 67.2%
- viability, T/C [11]: 62.6%
- viability, T/C [12]: 46.1%
- viability, T/C [13]: 56.6%
- viability, T/C [14]: 67%
- viability, T/C [15]: 44.2%
- viability, T/C [16]: 48.5%
- viability, T/C [17]: 54.6%
- viability, T/C [18]: 39.5%
- viability, T/C [19]: 35.4%
- viability, T/C [20]: 44.6%
- viability, T/C [21]: 31.2%
- viability, T/C [22]: 40%
- viability, T/C [23]: 37.4%
- viability, T/C [24]: 21.4%
- viability, T/C [25]: 48.5%
- viability, T/C [26]: 28.9%
- viability, T/C [27]: 35.2%
- viability, T/C [28]: 24.8%
- viability, T/C [29]: 30.9%
- viability, T/C [30]: 27.8%

Structure (SMILES): CC(C)NCC(C(=O)N1CCN(c2ncnc3c2C(C)CC3O)CC1)c1ccc(Cl)cc1 (stereo not given)
- viability, T/C (compound 0.0316 µM): 107% [middle of 4 runs]
- viability, T/C (compound 0.1 µM): 91.1% [middle of 4 runs]
- viability, T/C (compound 0.316 µM): 90.2% [middle of 4 runs]
- viability, T/C (compound 1 µM): 88% [middle of 4 runs]
- viability, T/C (compound 3.16 µM): 103% [middle of 4 runs]
- viability, T/C (compound 10 µM): 83.2% [middle of 4 runs]
- IC50 (curve of compound): > 10 µM
